Results as given in US10167276B2, “Compounds and methods for inhibiting JAK” (Dizal (Jiangsu) Pharmaceutical Co., Ltd., priority 2015, dated 2019).

Key:
[1] = test system: LG1049 non-small cell lung cancer PDX tumor xenografts; test: In vivo efficacy with osimertinib in the LG1049 xenograft PDX model
Method: LG1049 non-small cell lung cancer PDX tumor xenografts were grown subcutaneously in female NSG mice. […] Tumor volume was measured twice a week.
(§1) LG1 049 tumor fragments were implanted subcutaneously in female NSG mice (JAX Stock No. 005557).

pEGFR = pEGFR levels in LG1049 tumor lysates (Western Blot); assay type: in vivo, mice; details: osimertinib 25 mg/kg QD, 5 days of treatment, 4H after the final dose
Excerpt: as §1

[2] = test system: STAT3 phosphorylation in NCI-H1975 cells; test: Cellular pSTAT3 assay in NCI-H1975 cells; assay type: cell-based; details: Homo sapiens, 2 hours with compound
Outline: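 NCI-H1975 cells (RPMI, 10% FBS) were treated with compound for 2 hours at 37° C., then lysed. Phospho-STAT3 in lysates was quantified by sandwich ELISA (STAT3 capture, phospho-STAT3 detection, HRP secondary, TMB), read at 450 nm.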

[3] = test system: NCI-H1975 tumor xenografts; test: In vivo efficacy with osimertinib in the H1975 xenograft model; design: species or system mice; details: oral, 18 days
Method: (§2) Tumor volume was measured twice a week.
NCI-H1975 cells (a human NSCLC cell line with L858R and T790M mutations in the EGFR gene) tumor cells were implanted subcutaneously in female NCr nude mice (Taconic Laboratories), 3×10^6 cells/mouse.

PC-9 tumor xenografts = test: In vivo efficacy with gefitinib in the PC-9 xenograft model; design: species or system mice
Method: as §2

[4] = test system: NCI-H1650 tumor xenografts; test: In vivo efficacy with gefitinib in the H1650 xenograft model; design: species or system mice; details: Example 32 25 or 50 mg/kg BID + gefitinib 6.25 mg/kg QD, oral, 21 days
Method: as §2
(§3) Twenty-three days after cell implantation, the mice were randomized into 6 groups (9 mice/group, average tumor volume 257 mm^3, range 205-303 mm^3). […] Drug levels in plasma were measured by LC/MS, using a Linear Ion Trap Quadrupole LC/MS/MS Mass Spectrometer (QTRAP 5500 model 1024945-BB, AB Sciex Instruments), with separation on a Waters Xbridge C18 column.

[5] = test system: NCI-H1975 tumor xenografts; test: In vivo efficacy of intermittent Example 32 dosing schedules with osimertinib in the H1975 xenograft model; design: species or system mice; details: oral
Method: as §2
NCI-H1975 cells (a human NSCLC cell line with L858R and T790M mutations in the EGFR gene), were implanted subcutaneously in female NCr nude mice (Taconic Laboratories), 3×10^6 cells/mouse.

pSTAT3 (Y705) [6] = test: pSTAT3 (Y705) levels in NCI-H1975 tumor lysates (sandwich ELISA); assay type: in vivo, mice; details: increasing dose of Example 32 (12.5 to 50 mg/kg BID), one day of treatment
Method: (§4) NCI-H1975 cells (a human NSCLC cell line with L858R and T790M mutations in the EGFR gene) tumor cells were implanted subcutaneously in female NCr nude mice (Taconic Laboratories), 3×10^6 cells/mouse. […] Drug levels in plasma were measured by LC/MS, using a Linear Ion Trap Quadrupole LC/MS/MS Mass Spectrometer (QTRAP 5500 model 1024945-BB, AB Sciex Instruments), with separation on a Waters Xbridge C18 column.

pSTAT3 (Y705) [7] = test: pSTAT3 (Y705) levels in PC-9 tumor lysates (Western Blot); assay type: in vivo, mice; details: increasing dose of Example 32 (12.5, 50 mg/kg BID) with gefitinib; 2, 8 and 24 hours after the AM dose, last day
pSTAT3 (Y705) [8] = test: pSTAT3 levels in NCI-H1650 tumor lysates (Western Blot); assay type: in vivo, mice; details: Example 32 as single agent and in combination with gefitinib, after one day of treatment
Method: as §3

pSTAT3 (Y705) [9] = test: pSTAT3 levels in LG1049 tumor lysates (Western Blot); assay type: in vivo, mice; details: Example 32 25 mg/kg BID, 5 days of treatment, 4H after the final dose
Excerpt: LG1 049 tumor fragments were implanted subcutaneously in female NSG mice (JAX Stock No. 005557). Once tumor volumes reached ˜125-275 mm^3, mice were randomized into 5 groups (10 mice/group, average tumor volume 189 mm^3, range 138-253 mm^3).

[10] = Drug levels in plasma by LC/MS, NCI-H1975 tumor bearing mice; assay type: in vivo; details: increasing dose of Example 32 (12.5 to 50 mg/kg BID), one day of treatment
Method: as §4

IC50 [2] [nM] | level of Example 32 in plasma [10] | Structure (SMILES) | body weight, single agent treatment ([1]; LG1049 tumor bearing mice, weight loss stated to depend on tumor growth) | pEGFR knockdown in tumors (pEGFR) | antitumor activity as a single agent ([3]; Example 32 12.5, 25, 50 mg/kg BID) | antitumor activity in combination with osimertinib, compared to osimertinib alone ([3]; Example 32 12.5-50 mg/kg BID + osimertinib 2.5 mg/kg QD) | antitumor activity in combination with gefitinib, compared to gefitinib (PC-9 tumor xenografts; Example 32 12.5 or 50 mg/kg BID + gefitinib 6.25 mg/kg QD, oral, 21 days) | antitumor activity in combination with gefitinib, compared to single agent gefitinib (PC-9 tumor xenografts; gefitinib + 12.5 mg/kg Example 32 daily) | antitumor activity in combination with gefitinib, compared to single agent gefitinib (PC-9 tumor xenografts; gefitinib + 50 mg/kg Example 32 dosed 2 days on/5 days off) | antitumor activity in combination with gefitinib, compared to single agent gefitinib [4] | tumor regression in combination with osimertinib, compared to osimertinib alone ([1]; Example 32 25 mg/kg BID + osimertinib 25 mg/kg QD, oral, 28 days) | antitumor activity as a single agent ([1]; Example 32 25 mg/kg BID, oral, 18 days) | body weight, single agent treatment ([1]; mouse, in vivo) | antitumor activity as a single agent ([5]; Example 32 50 mg/kg BID, 19 days) | antitumor activity in combination with osimertinib, compared to osimertinib alone ([5]; Example 32 12.5-50 mg/kg BID, continuous or intermittent schedules + osimertinib 2.5 mg/kg QD) | pSTAT3 knockdown in tumors (pSTAT3 (Y705) [6]) | pSTAT3 knockdown in tumors (pSTAT3 (Y705) [7]) | pSTAT3 knockdown in tumors (pSTAT3 (Y705) [8]) | pSTAT3 knockdown in tumors (pSTAT3 (Y705) [9])
 |  | C=CC(=O)Nc1cc(Nc2nccc(-c3cn(C)c4ccccc34)n2)c(OC)cc1N(C)CCN(C)C [osimertinib, reference compound] | lack of significant weight loss | robust knockdown |  |  |  |  |  |  |  |  |  |  |  |  |  |  | 
161 | increasing level of Example 32 in plasma | COc1nn(C)cc1Nc1nccc(-c2c[nH]c3c(NC(=O)[C@@H](C)N4CCN(C)CC4)cccc23)n1 [Example 32, (2R)-N-(3-{2-[(3-methoxy-1-methyl-1H-pyrazol-4-yl)amino]pyrimidin-4-yl}-1H-indol-7-yl)-2-(4-methylpiperazin-1-yl)propanamide] |  |  | only weak antitumor activity relative to vehicle control treatment | enhanced the antitumor activity of osimertinib | enhanced the antitumor activity of gefitinib | greater activity than single agent gefitinib, but did not quite achieve statistical significance | greater activity than single agent gefitinib, but did not quite achieve statistical significance | enhanced the antitumor activity of gefitinib | enhanced the tumor regression induced by osimertinib | no significant activity relative to vehicle control treatment | significant weight loss | no significant activity relative to vehicle control treatment | enhanced the antitumor activity of osimertinib | dose dependent increase in pSTAT3 knockdown | dose dependent increase in the duration of pSTAT3 knockdown | Knockdown of pSTAT3 was observed | robust knockdown
